Assay [1] has as its system Beet Armyworm (Spodoptera exigua) ("BAW"), second instar larvae. Description: Bioassay on beet armyworm (BAW), 128-well diet tray assay. The class given is in vivo. The note with it: Spodoptera exigua, read-out: BAW (Biological Results, rating). In a few lines: (§1)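 Read-out: percent larval mortality per well, averaged over 8 wells. Incubation 25° C., 14:10 L:D photoperiod, 5–7 days, trays sealed with clear adhesive cover.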

Assay [2] relates to Cabbage Looper (Trichoplusia ni) ("CL"), second instar larvae. Description: Bioassay on cabbage looper (CL), 128-well diet tray assay. The class given is in vivo. To be noted: Trichoplusia ni, read-out: CL (Biological Results, rating). In a few lines:
as §1

`COC(C)c1ccc(C)cc1N1C(=O)CS/C1=N\C(=O)Nc1ccc(-c2ncn(-c3ccc(OC(F)(F)F)cc3)n2)cc1C(C)C` (stereo not shown) [Compound J94, (Z)-1-(2-Isopropyl-4-(1-(4-(trifluoromethoxy)phenyl)-1H-1,2,4-triazol-3-yl)phenyl)-3-(3-(2-(1-methoxyethyl)-5-methylphenyl)-4-oxothiazolidin-2-ylidene)urea]: the pest or weed control at 50 µg/cm2 in assay [1] and in assay [2] was 50 to 100% throughout.

In the case of `Cc1ccc(C(C)C)c(N2C(=O)CS/C2=N\C(=O)Nc2c(C)cc(-c3ncn(-c4ccc(OC(F)(F)F)cc4)n3)cc2C)c1` [Compound J95, (Z)-1-(2,6-Dimethyl-4-(1-(4-(trifluoromethoxy)phenyl)-1H-1,2,4-triazol-3-yl)phenyl)-3-(3-(2-isopropyl-5-methylphenyl)-4-oxothiazolidin-2-ylidene)urea], the pest or weed control at 50 µg/cm2 in assay [1] and in assay [2] was 50 to 100% each time.

Turning to `Cc1cc(-c2ncn(-c3ccc(OC(F)(F)F)cc3)n2)cc(C)c1NC(=O)/N=C1\SCC(=O)N1c1cc(N(C)C)ccc1C(C)C` [Compound J96, (Z)-1-(2,6-Dimethyl-4-(1-(4-(trifluoromethoxy)phenyl)-1H-1,2,4-triazol-3-yl)phenyl)-3-(3-(5-(dimethylamino)-2-isopropylphenyl)-4-oxothiazolidin-2-ylidene)urea], the pest or weed control at 50 µg/cm2 in assay [1] and in assay [2] was 50 to 100% each time.

Regarding `COC(C)c1ccc(C)cc1N1C(=O)CS/C1=N\C(=O)Nc1c(C)cc(-c2ncn(-c3ccc(OC(F)(F)F)cc3)n2)cc1C` (stereo not shown) [Compound J97, (Z)-1-(2,6-Dimethyl-4-(1-(4-(trifluoromethoxy)phenyl)-1H-1,2,4-triazol-3-yl)phenyl)-3-(3-(2-(1-methoxyethyl)-5-methylphenyl)-4-oxothiazolidin-2-ylidene)urea], the pest or weed control at 50 µg/cm2 in assay [1] and in assay [2] was 50 to 100% each time.

Turning to `COc1ccc(C(C)C)c(N2C(=O)CS/C2=N\C(=O)Nc2c(C)cc(-c3ncn(-c4ccc(OC(F)(F)F)cc4)n3)cc2C)c1` [Compound J98, (Z)-1-(2,6-Dimethyl-4-(1-(4-(trifluoromethoxy)phenyl)-1H-1,2,4-triazol-3-yl)phenyl)-3-(3-(2-isopropyl-5-methoxyphenyl)-4-oxothiazolidin-2-ylidene)urea], the pest or weed control at 50 µg/cm2 in assay [1] and in assay [2] was 50 to 100% in each case.

Take `Cc1ccc(C(C)C)c(N2C(=O)CS/C2=N\C(=O)Nc2ccc(-c3ncn(-c4ccc(OC(F)(F)F)cc4)n3)cc2C(C)C)c1` [Compound J99, (Z)-1-(2-Isopropyl-4-(1-(4-(trifluoromethoxy)phenyl)-1H-1,2,4-triazol-3-yl)phenyl)-3-(3-(2-isopropyl-5-methylphenyl)-4-oxothiazolidin-2-ylidene)urea]: the pest or weed control at 50 µg/cm2 in assay [1] and in assay [2] was 50 to 100% each time.

As to `COc1ccc(C(C)C)c(N2C(=O)CS/C2=N\C(=O)Nc2ccc(-c3ncn(-c4ccc(OC(F)(F)F)cc4)n3)cc2C(C)C)c1` [Compound J100, (Z)-1-(2-Isopropyl-4-(1-(4-(trifluoromethoxy)phenyl)-1H-1,2,4-triazol-3-yl)phenyl)-3-(3-(2-isopropyl-5-methoxyphenyl)-4-oxothiazolidin-2-ylidene)urea], the pest or weed control at 50 µg/cm2 in assay [1] and in assay [2] was 50 to 100% each time.

Regarding `CC(C)c1cc(-c2ncn(-c3ccc(OC(F)(F)F)cc3)n2)ccc1NC(=O)/N=C1\SCC(=O)N1c1cc(N(C)C)ccc1C(C)C` [Compound J101, (Z)-1-(3-(5-(Dimethylamino)-2-isopropylphenyl)-4-oxothiazolidin-2-ylidene)-3-(2-isopropyl-4-(1-(4-(trifluoromethoxy)phenyl)-1H-1,2,4-triazol-3-yl)phenyl)urea], the pest or weed control at 50 µg/cm2 in assay [1] and in assay [2] was 50 to 100% each time.

For `Cc1cc(-c2ncn(-c3ccc(OC(F)(F)F)cc3)n2)ccc1NC(=O)/N=C1\SCC(=O)N1c1cc(N(C)C)ccc1OCCC(F)(F)F` [Compound J102, (Z)-1-(3-(5-(Dimethylamino)-2-(3,3,3-trifluoropropoxy)phenyl)-4-oxothiazolidin-2-ylidene)-3-(2-methyl-4-(1-(4-(trifluoromethoxy)phenyl)-1H-1,2,4-triazol-3-yl)phenyl)urea], the pest or weed control at 50 µg/cm2 in assay [1] and in assay [2] was 50 to 100% each time.

As for `CCNc1ccc(C(C)C)c(N2C(=O)CS/C2=N\C(=O)Nc2ccc(-c3ncn(-c4ccc(OC(F)(F)F)cc4)n3)cc2F)c1` [Compound J106, (Z)-1-(3-(5-(Ethylamino)-2-isopropylphenyl)-4-oxothiazolidin-2-ylidene)-3-(2-fluoro-4-(1-(4-(trifluoromethoxy)phenyl)-1H-1,2,4-triazol-3-yl)phenyl)urea], the pest or weed control at 50 µg/cm2 in assay [1] and in assay [2] was 50 to 100% throughout.

Turning to `CCCNc1ccc(C(C)C)c(N2C(=O)CS/C2=N\C(=O)Nc2ccc(-c3ncn(-c4ccc(OC(F)(F)F)cc4)n3)cc2F)c1` [Compound J107, (Z)-1-(2-Fluoro-4-(1-(4-(trifluoromethoxy)phenyl)-1H-1,2,4-triazol-3-yl)phenyl)-3-(3-(2-isopropyl-5-(propylamino)phenyl)-4-oxothiazolidin-2-ylidene)urea], the pest or weed control at 50 µg/cm2 in assay [1] and in assay [2] was 50 to 100% throughout.

Regarding `CCCN(CCC)c1ccc(C(C)C)c(N2C(=O)CS/C2=N\C(=O)Nc2ccc(-c3ncn(-c4ccc(OC(F)(F)F)cc4)n3)cc2F)c1` [Compound J108, (Z)-1-(3-(5-(Dipropylamino)-2-isopropylphenyl)-4-oxothiazolidin-2-ylidene)-3-(2-fluoro-4-(1-(4-(trifluoromethoxy)phenyl)-1H-1,2,4-triazol-3-yl)phenyl)urea], the pest or weed control at 50 µg/cm2 in assay [1] and in assay [2] was 50 to 100% each time.

With `COc1cc(-c2ncn(-c3ccc(OC(F)(F)F)cc3)n2)ccc1NC(=O)/N=C1\SCC(=O)N1c1cc(N(C)C)ccc1OCCC(F)(F)F` [Compound J109, (Z)-1-(3-(5-(Dimethylamino)-2-(3,3,3-trifluoropropoxy)phenyl)-4-oxothiazolidin-2-ylidene)-3-(2-methoxy-4-(1-(4-(trifluoromethoxy)phenyl)-1H-1,2,4-triazol-3-yl)phenyl)urea], the pest or weed control at 50 µg/cm2 in assay [1] and in assay [2] was 50 to 100% throughout.

Take `CCc1cc(-c2ncn(-c3ccc(OC(F)(F)F)cc3)n2)ccc1NC(=O)/N=C1\SCC(=O)N1c1cc(N(C)C)ccc1OCCC(F)(F)F` [Compound J110, (Z)-1-(3-(5-(Dimethylamino)-2-(3,3,3-trifluoropropoxy)phenyl)-4-oxothiazolidin-2-ylidene)-3-(2-ethyl-4-(1-(4-(trifluoromethoxy)phenyl)-1H-1,2,4-triazol-3-yl)phenyl)urea]: the pest or weed control at 50 µg/cm2 in assay [1] and in assay [2] was 50 to 100% in each case.

Turning to `CC(C)c1cc(-c2ncn(-c3ccc(OC(F)(F)F)cc3)n2)ccc1NC(=O)/N=C1\SCC(=O)N1c1cc(N(C)C)ccc1OCCC(F)(F)F` [Compound J111, (Z)-1-(3-(5-(Dimethylamino)-2-(3,3,3-trifluoropropoxy)phenyl)-4-oxothiazolidin-2-ylidene)-3-(2-isopropyl-4-(1-(4-(trifluoromethoxy)phenyl)-1H-1,2,4-triazol-3-yl)phenyl)urea], the pest or weed control at 50 µg/cm2 in assay [1] and in assay [2] was 50 to 100% throughout.

Take `CC(C)c1cc(N(C)C)ccc1N1C(=O)CS/C1=N\C(=O)Nc1ccc(-c2ncn(-c3ccc(OC(F)(F)F)cc3)n2)cc1F` [Compound J112, (Z)-1-(3-(4-(Dimethylamino)-2-isopropylphenyl)-4-oxothiazolidin-2-ylidene)-3-(2-fluoro-4-(1-(4-(trifluoromethoxy)phenyl)-1H-1,2,4-triazol-3-yl)phenyl)urea]: the pest or weed control at 50 µg/cm2 in assay [1] and in assay [2] was 50 to 100% in each case.

`Cc1ccc(C(C)C)c(N2C(=O)CS/C2=N\C(=O)Nc2ccc(-c3ncn(-c4ccc(OC(F)(F)F)cc4)n3)cc2C(F)(F)F)c1` [Compound J114, (Z)-1-(3-(2-Isopropyl-5-methylphenyl)-4-oxothiazolidin-2-ylidene)-3-(4-(1-(4-(trifluoromethoxy)phenyl)-1H-1,2,4-triazol-3-yl)-2-(trifluoromethyl)phenyl)urea]: the pest or weed control at 50 µg/cm2 in assay [1] and in assay [2] was 50 to 100% throughout.

Turning to `Cc1ccc(OCC(F)(F)F)c(N2C(=O)CS/C2=N\C(=O)Nc2ccc(-c3ncn(-c4ccc(OC(F)(F)F)cc4)n3)cc2C(F)(F)F)c1` [Compound J115, (Z)-1-(3-(5-Methyl-2-(2,2,2-trifluoroethoxy)phenyl)-4-oxothiazolidin-2-ylidene)-3-(4-(1-(4-(trifluoromethoxy)phenyl)-1H-1,2,4-triazol-3-yl)-2-(trifluoromethyl)phenyl)urea], the pest or weed control at 50 µg/cm2 in assay [1] and in assay [2] was 50 to 100% each time.

Consider `COC(C)c1ccc(C)cc1N1C(=O)CS/C1=N\C(=O)Nc1ccc(-c2ncn(-c3ccc(OC(F)(F)F)cc3)n2)cc1C(F)(F)F` (stereo not shown) [Compound J117, (Z)-1-(3-(2-(1-Methoxyethyl)-5-methylphenyl)-4-oxothiazolidin-2-ylidene)-3-(4-(1-(4-(trifluoromethoxy)phenyl)-1H-1,2,4-triazol-3-yl)-2-(trifluoromethyl)phenyl)urea], for which the pest or weed control at 50 µg/cm2 in assay [1] and in assay [2] was 50 to 100% each time.

With `CN(C)c1ccc(OCCC(F)(F)F)c(N2C(=O)CS/C2=N\C(=O)Nc2ccc(-c3ncn(-c4ccc(OC(F)(F)F)cc4)n3)cc2C(F)(F)F)c1` [Compound J118, (Z)-1-(3-(5-(Dimethylamino)-2-(3,3,3-trifluoropropoxy)phenyl)-4-oxothiazolidin-2-ylidene)-3-(4-(1-(4-(trifluoromethoxy)phenyl)-1H-1,2,4-triazol-3-yl)-2-(trifluoromethyl)phenyl)urea], the pest or weed control at 50 µg/cm2 in assay [1] and in assay [2] was 50 to 100% each time.

Source of the values: patent publication US20230077362A1 (CORTEVA AGRISCIENCE LLC, priority 2019, published 2023).
